Data taken from patent publication US20030032000A1, “Method for analyzing cellular events” (Signature BioScience Inc., priority 2001, published 2003).

Legend:
CHOk1 cells = test: MCS cellular activity assay in un-transfected CHOk1 wild-type cells; settings: various concentrations of carbachol, signal integrated over 50 MHz to 1 GHz
calcium flux = test: MCS detection of calcium flux modifiers in wild-type and transfected cells; format: cell-based, Chinese Hampster
Protocol: Ability to detect other calcium flux modifies was tested using ionomycin (an ionophore).

Row | SMILES | integrated MCS signal over time versus buffer (CHOk1 cells) | inhibition of ionomycin effect, MCS (calcium flux)
1 | C[N+](C)(C)CCOC(N)=O [carbachol] | essentially no change in signal over time | 
2 | C/C=C(/C)C(=O)O[C@H]1C(C)=C2[C@H]([C@@H]1OC(=O)CCCCCCC)[C@@](C)(OC(C)=O)C[C@H](OC(=O)CCC)[C@@]1(O)[C@H]2OC(=O)[C@@]1(C)O [thapsigargin] |  | inhibit ionomycin
